Experimental data from PMC8753592, “Long-acting capsid inhibitor protects macaques from repeat SHIV challenges” (Nature, 2021).
Where “and” joins values, the source holds several entries; their conditions need not be identical. Identical values can stand only once.

Experiments:
[1] = Metabolic stability of [3H]GS-CA1 in primary rhesus hepatocytes; assay type: in vitro ADME
Description: Propranolol (1 μM final), a compound known to be efficiently metabolized by hepatocytes by oxidation and conjugation, was used as a positive control. A cell-free control was incubated in parallel as a negative control. Aliquots (100 μl) were removed after 0 h, 1 h, 3 h and 6 h and were then mixed with 200 μl quenching solution, placed on a shaker for 10 min and centrifuged at 3,000g for 60 min. The supernatant was transferred to a new plate, diluted with 100 μl water and placed on a shaker for 10 min. […] PerkinElmer Ultima-Flo was used as the scintillation cocktail, which was mixed with the HPLC effluent at a ratio of 1:1. Sample (100 μl) was injected using a Leap Technologies CTC PAL autosampler. Separation was achieved on a Phenomenex Synergi Fusion-RP 80-Å pore size, 4-μm particle size, 150 × 4.6-mm column maintained at 32 °C. Mobile phase A consisted of 95% water, 5% acetonitrile and 0.1% trifluoroacetic acid (TFA). Mobile phase B consisted of 95% acetonitrile, 5% water and 0.1% TFA. […] The column was allowed to re-equilibrate for 12 min between injections. Quantification was based on the radiochromatographic peak area using Dionex (Thermo Scientific) Chromeleon 6.8 software.

[2] = test system: SHIV-SF162P3; assay: Repeated escalating-dose rectal SHIV challenge study (plasma viraemia by gag RT-qPCR); assay type: in vivo, rhesus macaques of Indian origin; settings: for Proportion of animals protected: 15 weekly rectal challenges, follow-up to week 24; for First viremic timepoint: individual infected animals
Description: For the challenge study, 24 outbred rhesus macaques of Indian origin were assigned to the three study groups with even sex and weight distributions. All animals were housed at Alpha Genesis (Yemassee, SC), and all procedures were conducted in compliance with all relevant local, state and federal regulations and were approved by the Alpha Genesis IACUC. […] The injection sites were monitored daily by veterinary staff for 3 days. Beginning in week 1, animals in all three groups were challenged by the intrarectal route with 1 ml of RPMI containing the specified dilution of a 3.62 × 10^3 TCID50 SHIV-SF162P3 stock. At each respective time point, the challenges were performed on the same day, using the same virus stock and inoculation method across the three groups. Whole blood was collected and processed into plasma and PBMCs as necessary to assess routine haematology, clinical chemistry, viral load and serology as well as for bioanalysis of drug levels. The animals were considered to be protected if they remained SHIV negative by plasma PCR assay and seronegative by enzyme immunoassay throughout the 15-week challenge phase and the 9-week follow-up.
RNA was extracted from rhesus macaque plasma using a QIAcube high-throughput instrument and an IndiSpin QIAcube HT Pathogen kit (Qiagen). RNA standards using the SIV gag sequence were generated by AmpliCap-Max T7 High-Yield Message Maker kit (Cell Script) and were purified using an RNA Clean and Concentrator kit (Zymo Research). Log dilutions of the RNA were included with each RT–qPCR assay. Reverse transcription of standards and samples was performed using a Superscript III VILO kit (Invitrogen). qPCR was performed using forward primer 5′-[…]-3′, reverse primer 5′-[…]-3′ and fluorescently labelled primer 5′-[…]-3′ on a Quantstudio 6 Flex system (Applied Biosystems). The assay LOD was 200 copies gag per ml.
Protection against acquired infection was analysed using Cox proportional hazard regression models based on the exact partial likelihood for discrete time expressed in weeks, which explicitly accounts for the time-varying viral challenge dose in the model. The hazard ratios with 95% confidence intervals for per-exposure relative reductions in acquisition risk were calculated for the GS-CA1-treated groups, and the results were compared with those for the vehicle-treated control group. Comparisons were considered statistically significant at a two-sided alpha level of 0.05 (P < 0.05). Statistical analyses were performed using GraphPad Prism version 8.1.2, SAS version 9.4 and R Studio software version 4.0.5.

[3] = test system: HIV-1 isolates; settings: ref Yant et al, Nat.Med, 2019;[4]; read-out: EC50, human PBMCs, HIV-1 isolates; cited from earlier work

CC(C)(C#Cc1ccc(-c2ccc(Cl)c3c(NS(=O)(=O)C4CC4)nn(CC(F)F)c23)c([C@H](Cc2cc(F)cc(F)c2)NC(=O)Cn2nc(C(F)F)c3c2C(F)(F)[C@@H]2C[C@H]32)n1)S(C)(=O)=O [GS-CA1]
hepatic extraction [1]: 2.9%
predicted rate of hepatic clearance ([1]; 3H-labelled GS-CA1): 1.2 mL/min/kg
Median weeks to viraemia (95% CI) ([2]; 150 mg/kg single s.c.): 16 weeks and 16 (11, –) weeks
study week until which no viraemia was detected in the group ([2]; 150 mg/kg single s.c.): 11 week
per-exposure risk reduction ([2]; 150 mg/kg single s.c. vs vehicle): 87%
Proportion of animals protected ([2]; 150 mg/kg single s.c.): 2/8
First viremic timepoint ([2]; 150 mg/kg): 16 study week and 13 study week and 11 study week and 14 study week and 17 study week
Median weeks to viraemia (95% CI) ([2]; 300 mg/kg single s.c.): Not reached (17, –)
study week until which no viraemia was detected in the group ([2]; 300 mg/kg single s.c.): 17 week
per-exposure risk reduction ([2]; 300 mg/kg single s.c. vs vehicle): 97%
Proportion of animals protected ([2]; 300 mg/kg single s.c.): 5/8
First viremic timepoint ([2]; 300 mg/kg): 17 study week
average plasma GS-CA1 at estimated mucosal infection ([2]; 2 weeks before first detectable viraemia, nine infected treated animals): 31.4 nM
plasma GS-CA1 at estimated mucosal infection as multiple of rhesus paEC95 ([2]; 2 weeks before first detectable viraemia, range 0.4–1.6): 1.0
Plasma SHIV viral load ([2]; GS-CA1 150mg/kg group, Week 1, individual animals): 200 gag RNA copies per ml
Plasma SHIV viral load ([2]; GS-CA1 150mg/kg group, Week 2, individual animals): 200 gag RNA copies per ml
Plasma SHIV viral load ([2]; GS-CA1 150mg/kg group, Week 3, individual animals): 200 gag RNA copies per ml
Plasma SHIV viral load ([2]; GS-CA1 150mg/kg group, Week 4, individual animals): 200 gag RNA copies per ml
Plasma SHIV viral load ([2]; GS-CA1 150mg/kg group, Week 5, individual animals): 200 gag RNA copies per ml
Plasma SHIV viral load ([2]; GS-CA1 150mg/kg group, Week 6, individual animals): 200 gag RNA copies per ml
Plasma SHIV viral load ([2]; GS-CA1 150mg/kg group, Week 7, individual animals): 200 gag RNA copies per ml
Plasma SHIV viral load ([2]; GS-CA1 150mg/kg group, Week 8, individual animals): 200 gag RNA copies per ml
Plasma SHIV viral load ([2]; GS-CA1 150mg/kg group, Week 9, individual animals): 200 gag RNA copies per ml
Plasma SHIV viral load ([2]; GS-CA1 150mg/kg group, Week 10, individual animals): 200 gag RNA copies per ml
Plasma SHIV viral load ([2]; GS-CA1 150mg/kg group, Week 11, individual animals, 150 mg/kg): 200 gag RNA copies per ml and 2317 gag RNA copies per ml
Plasma SHIV viral load ([2]; GS-CA1 150mg/kg group, Week 12, individual animals, 150 mg/kg): 200 gag RNA copies per ml and 1251253 gag RNA copies per ml
Plasma SHIV viral load ([2]; GS-CA1 150mg/kg group, Week 13, individual animals, 150 mg/kg): 200 gag RNA copies per ml and 4495324 gag RNA copies per ml and 15543 gag RNA copies per ml
Plasma SHIV viral load ([2]; GS-CA1 150mg/kg group, Week 14, individual animals, 150 mg/kg): 200 gag RNA copies per ml and 192698 gag RNA copies per ml and 302527 gag RNA copies per ml and 14481 gag RNA copies per ml
Plasma SHIV viral load ([2]; GS-CA1 150mg/kg group, Week 15, individual animals, 150 mg/kg): 200 gag RNA copies per ml and 1636073 gag RNA copies per ml and 41252 gag RNA copies per ml and 436449 gag RNA copies per ml
Plasma SHIV viral load ([2]; GS-CA1 150mg/kg group, Week 16, individual animals, 150 mg/kg): 43433 gag RNA copies per ml and 200 gag RNA copies per ml and 144532 gag RNA copies per ml and 37186 gag RNA copies per ml and 15508 gag RNA copies per ml and 62513 gag RNA copies per ml
Plasma SHIV viral load ([2]; GS-CA1 150mg/kg group, Week 17, individual animals, 150 mg/kg): 28104 gag RNA copies per ml and 200 gag RNA copies per ml and 128422 gag RNA copies per ml and 4020 gag RNA copies per ml and 5872 gag RNA copies per ml and 1974 gag RNA copies per ml and 76901 gag RNA copies per ml
Plasma SHIV viral load ([2]; GS-CA1 150mg/kg group, Week 18, individual animals, 150 mg/kg): 8535 gag RNA copies per ml and 200 gag RNA copies per ml and 144695 gag RNA copies per ml and 18625 gag RNA copies per ml and 13017 gag RNA copies per ml and 2250 gag RNA copies per ml and 14905 gag RNA copies per ml
Plasma SHIV viral load ([2]; GS-CA1 150mg/kg group, Week 19, individual animals, 150 mg/kg): 2197 gag RNA copies per ml and 200 gag RNA copies per ml and 23783 gag RNA copies per ml and 733 gag RNA copies per ml and 4607 gag RNA copies per ml and 1586 gag RNA copies per ml and 872 gag RNA copies per ml
Plasma SHIV viral load ([2]; GS-CA1 150mg/kg group, Week 20, individual animals, 150 mg/kg): 200 gag RNA copies per ml and 533 gag RNA copies per ml and 294 gag RNA copies per ml and 1229 gag RNA copies per ml
Plasma SHIV viral load ([2]; GS-CA1 150mg/kg group, Week 21, individual animals, 150 mg/kg): 200 gag RNA copies per ml and 8674 gag RNA copies per ml and 2199 gag RNA copies per ml
Plasma SHIV viral load ([2]; GS-CA1 150mg/kg group, Week 22, individual animals, 150 mg/kg): 200 gag RNA copies per ml and 2557 gag RNA copies per ml and 493 gag RNA copies per ml
Plasma SHIV viral load ([2]; GS-CA1 150mg/kg group, Week 23, individual animals, 150 mg/kg): 200 gag RNA copies per ml and 1150 gag RNA copies per ml and 1806 gag RNA copies per ml and 218 gag RNA copies per ml
Plasma SHIV viral load ([2]; GS-CA1 150mg/kg group, Week 24, individual animals, 150 mg/kg): 200 gag RNA copies per ml and 724 gag RNA copies per ml and 1367 gag RNA copies per ml
Plasma SHIV viral load ([2]; GS-CA1 300mg/kg group, Week 1, individual animals): 200 gag RNA copies per ml
Plasma SHIV viral load ([2]; GS-CA1 300mg/kg group, Week 2, individual animals): 200 gag RNA copies per ml
Plasma SHIV viral load ([2]; GS-CA1 300mg/kg group, Week 3, individual animals): 200 gag RNA copies per ml
Plasma SHIV viral load ([2]; GS-CA1 300mg/kg group, Week 4, individual animals): 200 gag RNA copies per ml
Plasma SHIV viral load ([2]; GS-CA1 300mg/kg group, Week 5, individual animals): 200 gag RNA copies per ml
Plasma SHIV viral load ([2]; GS-CA1 300mg/kg group, Week 6, individual animals): 200 gag RNA copies per ml
Plasma SHIV viral load ([2]; GS-CA1 300mg/kg group, Week 7, individual animals): 200 gag RNA copies per ml
Plasma SHIV viral load ([2]; GS-CA1 300mg/kg group, Week 8, individual animals): 200 gag RNA copies per ml
Plasma SHIV viral load ([2]; GS-CA1 300mg/kg group, Week 9, individual animals): 200 gag RNA copies per ml
Plasma SHIV viral load ([2]; GS-CA1 300mg/kg group, Week 10, individual animals): 200 gag RNA copies per ml
Plasma SHIV viral load ([2]; GS-CA1 300mg/kg group, Week 11, individual animals): 200 gag RNA copies per ml
Plasma SHIV viral load ([2]; GS-CA1 300mg/kg group, Week 12, individual animals): 200 gag RNA copies per ml
Plasma SHIV viral load ([2]; GS-CA1 300mg/kg group, Week 13, individual animals): 200 gag RNA copies per ml
Plasma SHIV viral load ([2]; GS-CA1 300mg/kg group, Week 14, individual animals): 200 gag RNA copies per ml
Plasma SHIV viral load ([2]; GS-CA1 300mg/kg group, Week 15, individual animals): 200 gag RNA copies per ml
Plasma SHIV viral load ([2]; GS-CA1 300mg/kg group, Week 16, individual animals): 200 gag RNA copies per ml
Plasma SHIV viral load ([2]; GS-CA1 300mg/kg group, Week 17, individual animals, 300 mg/kg): 9063 gag RNA copies per ml and 13193 gag RNA copies per ml and 200 gag RNA copies per ml and 13143 gag RNA copies per ml
Plasma SHIV viral load ([2]; GS-CA1 300mg/kg group, Week 18, individual animals, 300 mg/kg): 200 gag RNA copies per ml and 6116 gag RNA copies per ml and 1633235 gag RNA copies per ml
Plasma SHIV viral load ([2]; GS-CA1 300mg/kg group, Week 19, individual animals, 300 mg/kg): 200 gag RNA copies per ml and 123639 gag RNA copies per ml
Plasma SHIV viral load ([2]; GS-CA1 300mg/kg group, Week 20, individual animals, 300 mg/kg): 200 gag RNA copies per ml and 17958 gag RNA copies per ml
Plasma SHIV viral load ([2]; GS-CA1 300mg/kg group, Week 21, individual animals, 300 mg/kg): 200 gag RNA copies per ml
Plasma SHIV viral load ([2]; GS-CA1 300mg/kg group, Week 22, individual animals, 300 mg/kg): 200 gag RNA copies per ml
Plasma SHIV viral load ([2]; GS-CA1 300mg/kg group, Week 23, individual animals, 300 mg/kg): 200 gag RNA copies per ml
Plasma SHIV viral load ([2]; GS-CA1 300mg/kg group, Week 24, individual animals, 300 mg/kg): 200 gag RNA copies per ml
peak viral loads vs vehicle-treated control animals ([2]; infected GS-CA1-treated animals): significantly lower
EC50 [3]: 0.13 nM
